From patent US20060293249A1, “Porphyrin derivatives” (PhotoBiotics Limited, priority 2002, published 2006)
Where two headings read alike, the source gives them in different places.

Assays:
[1] = in toluene; known standard value; cited from earlier work
[2] = compounds known in the art; cited from earlier work
[3] = Solubility remark in synthesis; type: physicochemical
[4] = Determination of singlet oxygen quantum yields (phosphorescence at 1270 nm following laser excitation, relative to reference standard); type: physicochemical
Description: Air equilibrated solutions of the sensitisers were optically matched at the laser excitation wavelength along with that of the reference standard whose singlet oxygen quantum yield is known. Singlet oxygen generation is detected by its phosphorescence at 1270 nm following laser excitation. At each laser intensity the recorded phosphorescence trace was obtained by signal averaging 10 single shots. A linear regression between the signal amplitude and the laser intensity is carried out with the aim of calculating the slope of the straight line and since the gradient is proportional to the singlet oxygen quantum yield, by comparison with the gradient obtained for the standard, the singlet oxygen quantum yield for the sample can calculated using: φ=φstandard×(slopesample/slopestandard)×(absorptionsample/absorptionstandard)
This is a comparative method where the value obtained for φ is relative to that of a known standard. The quality of the results obtained are heavily dependent on the quality of the standard, which should be freshly prepared before measurements.

## C=Cc1c(C)c2cc3nc(c4c5[n-]c(cc6nc(cc1[n-]2)C(C)=C6CC)c(C)c5C(=O)[C@@H]4C(=O)OC)[C@@H](CCC(=O)OC/C=C(\C)CCC[C@H](C)CCC[C@H](C)CCCC(C)C)[C@@H]3C.[Mg+2] [chlorophyll A]
[1]
  singlet oxygen quantum yield of reference standard: 0.6

## disulfonated aluminium phthalocyanine [AIPCS2]
[2]
  singlet oxygen quantum yield: 0.3

## 5-Pentane-10,15,20-triiodo-porphyrin [[30]]
[3]
  solubility: limited solubility

## C[Si](C)(C)CCOC(=O)c1ccc(OCCCCCc2c3nc(c(I)c4ccc([nH]4)c(I)c4nc(c(I)c5ccc2[nH]5)C=C4)C=C3)cc1 [[9], 5-[5-(2′-(trimethylsilyl)ethyl-4-hydroxybenzoate)pentane]-10,15,20-triiodo-porphyrin]
[3]
  solubility: limited solubility

## Zinc5-[5-(2′-(trimethylsilyl)ethyl-4-hydroxybenzoate)pentane]-10,15,20-tri-2-ethynylpyridine-porphyrin [Compound [11]]
[4]
  singlet oxygen quantum yield: around 0.81
[4]; in toluene
  singlet oxygen quantum yield: 0.8109

## 5-Nonane-10,15,20-triiodo-porphyrin [[18]]
[3]
  solubility: limited solubility
